Bridge positions count the residues as written; N and C are the ends. Peptide text beside a SMILES is read from it. Some results are limits rather than exact numbers.

The chains are these.
B1: synthetic polypeptide … (peptide)
peptide: H-RPCNYYGTCLH-NH2
modifications: disulfide 3-9
SMILES: CC(C)C[C@H](NC(=O)[C@@H]1CSSC[C@H](NC(=O)[C@@H]2CCCN2C(=O)[C@@H](N)CCCNC(=N)N)C(=O)N[C@@H](CC(N)=O)C(=O)N[C@@H](Cc2ccc(O)cc2)C(=O)N[C@@H](Cc2ccc(O)cc2)C(=O)NCC(=O)N[C@@H]([C@@H](C)O)C(=O)N1)C(=O)N[C@@H](Cc1c[nH]cn1)C(N)=O
B2: synthetic polypeptide … (peptide)
peptide: H-RPCDYYGTCFD-NH2
modifications: disulfide 3-9
SMILES: C[C@@H](O)[C@@H]1NC(=O)CNC(=O)[C@H](Cc2ccc(O)cc2)NC(=O)[C@H](Cc2ccc(O)cc2)NC(=O)[C@H](CC(=O)O)NC(=O)[C@@H](NC(=O)[C@@H]2CCCN2C(=O)[C@@H](N)CCCNC(=N)N)CSSC[C@@H](C(=O)N[C@@H](Cc2ccccc2)C(=O)N[C@@H](CC(=O)O)C(N)=O)NC1=O
B3: synthetic polypeptide … (peptide)
peptide: H-LPCSYYGTCLH-NH2
modifications: disulfide 3-9
SMILES: CC(C)C[C@H](NC(=O)[C@@H]1CSSC[C@H](NC(=O)[C@@H]2CCCN2C(=O)[C@@H](N)CC(C)C)C(=O)N[C@@H](CO)C(=O)N[C@@H](Cc2ccc(O)cc2)C(=O)N[C@@H](Cc2ccc(O)cc2)C(=O)NCC(=O)N[C@@H]([C@@H](C)O)C(=O)N1)C(=O)N[C@@H](Cc1c[nH]cn1)C(N)=O
B4: synthetic polypeptide … (peptide)
peptide: H-FACHYYGTCLH-NH2
modifications: disulfide 3-9
SMILES: CC(C)C[C@H](NC(=O)[C@@H]1CSSC[C@H](NC(=O)[C@H](C)NC(=O)[C@@H](N)Cc2ccccc2)C(=O)N[C@@H](Cc2c[nH]cn2)C(=O)N[C@@H](Cc2ccc(O)cc2)C(=O)N[C@@H](Cc2ccc(O)cc2)C(=O)NCC(=O)N[C@@H]([C@@H](C)O)C(=O)N1)C(=O)N[C@@H](Cc1c[nH]cn1)C(N)=O

The target in the first assay is T1, DD(E) (Homo sapiens, UniProt P02671+P02675+P02679).
T1 construct: host or cells: purchased fibrinogen clotted with thrombin, digested with plasmin, then purified by ammonium sulfate cuts and Sephacryl S200
T1 sequence (P02671 130-216): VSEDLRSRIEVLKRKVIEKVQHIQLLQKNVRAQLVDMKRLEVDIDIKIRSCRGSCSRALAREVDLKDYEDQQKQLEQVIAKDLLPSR
T1 sequence (P02675 164-491): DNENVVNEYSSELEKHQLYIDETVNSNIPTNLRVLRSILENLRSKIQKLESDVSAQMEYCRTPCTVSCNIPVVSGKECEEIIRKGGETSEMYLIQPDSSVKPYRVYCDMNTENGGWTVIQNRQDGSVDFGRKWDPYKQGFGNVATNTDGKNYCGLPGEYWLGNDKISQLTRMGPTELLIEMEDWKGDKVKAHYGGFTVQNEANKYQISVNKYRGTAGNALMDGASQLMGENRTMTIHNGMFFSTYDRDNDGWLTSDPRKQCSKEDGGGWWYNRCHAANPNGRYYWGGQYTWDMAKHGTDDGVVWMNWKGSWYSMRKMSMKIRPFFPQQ
T1 sequence (P02679 114-432): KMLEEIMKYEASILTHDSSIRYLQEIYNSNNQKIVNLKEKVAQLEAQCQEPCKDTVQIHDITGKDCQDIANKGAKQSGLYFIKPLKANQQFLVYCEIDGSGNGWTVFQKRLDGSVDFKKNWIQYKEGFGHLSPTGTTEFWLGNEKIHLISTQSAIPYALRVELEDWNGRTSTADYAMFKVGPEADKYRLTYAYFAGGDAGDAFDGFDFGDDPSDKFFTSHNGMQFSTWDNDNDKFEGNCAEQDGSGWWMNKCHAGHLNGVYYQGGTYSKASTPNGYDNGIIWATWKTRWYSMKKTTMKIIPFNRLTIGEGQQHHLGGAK
T1 sequence (P02671 36-97): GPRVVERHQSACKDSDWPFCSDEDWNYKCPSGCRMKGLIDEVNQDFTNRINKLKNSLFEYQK
T1 sequence (P02675 45-152): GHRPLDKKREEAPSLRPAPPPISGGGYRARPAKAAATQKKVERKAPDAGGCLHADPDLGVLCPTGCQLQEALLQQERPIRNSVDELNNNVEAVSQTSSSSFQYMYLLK
T1 sequence (P02679 27-88): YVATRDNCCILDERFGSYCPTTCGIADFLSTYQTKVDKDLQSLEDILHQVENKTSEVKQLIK
In words: dissociation constant against fibrin-derived polypeptide DD(E). In kind it is binding. As to conditions: cyclic peptides of Table 12; unit inferred; read-out: Kd against DD(E). The protocol:
The soluble fibrin-derived polypeptide DD(E) was prepared following a modification of a published method (Moskoitz and Budzynksi, Biochemistry, 33: 12937-12944 (1994) and references therein). Fibrinogen containing a Factor XIII trace impurity (1 g, Grade L; purchased from American Diagnostica) was dissolved in TBS buffer and dialyzed overnight against TBS containing 5 mM citrate. The fibrinogen concentration was adjusted to 3.0 mg/ml and CaCl2 was added to a concentration of 10 mM. Clotting of the fibrinogen was initiated by the addition of thrombin to 0.5 U/ml and the clot was incubated for 3 hours at 37° C. The clot was cut up with a spatula to release water and to concentrate the clot. The clot pieces were washed twice with TBS.Ca buffer (TBS containing 2 mM CaCl2) and were centrifuged at 4,000×g to compact the clots between washes. The clot material was resuspended in 250 ml TBS containing 25 mM CaCl2 and 2 K.I.U. plasmin per mg fibrin. The clots were digested overnight at 20° C. Undigested clot was removed by pipette, and the supernatant was shaken with 10 ml of Lysine Sepharose (Pharmacia) for 30 minutes and filtered to remove the resin. Aprotinin was added to the filtrate to a concentration of 500 U/μL. Ammonium Sulfate was added to 30% saturation and the precipitated protein was removed by centrifugation. More ammonium sulfate was added to the supernatant to a final concentration of 50% saturation, and the precipitated protein was concentrated by centrifugation. The pellets, containing DD(E), were resuspended in a small volume of buffer (50 mM Tris, 150 mM NaCl, 2 mM CaCl2) (<10 ml) and chromatographed on a Sephacryl S200 (Pharmacia) size exclusion column (5×100 cm) in the same buffer. Fractions of protein eluted from the column were assayed by SDS-PAGE for DD(E). DD(E) contains subunits of 55 kD (Fragment E) and 190 kD (Fragment DD). […]
Dissociation constants were determined against DD(E) as described above.
On to `C[C@@H](O)[C@@H]1NC(=O)CNC(=O)[C@H](Cc2ccc(O)cc2)NC(=O)[C@H](Cc2ccc(O)cc2)NC(=O)[C@H](CC(=O)O)NC(=O)CNC(=O)CNC1=O` [(II)] (cyclo(GDYYGTG)), for which the Kd is greater than 500 µM.

As for “side-chain-to-side-chain cyclic peptide bearing a central Tyr-Tyr-Gly-Thr moiety [(III)]”, the Kd stood at 179 µM.

The assay is the same for the next values; noted with them: read-out: Kd DD(E).
With `CC[C@H](C)[C@H](NC(=O)[C@H](Cc1c[nH]c2ccccc12)NC(=O)[C@@H]1CSSC[C@H](NC(=O)[C@H](CCC(=O)O)NC(=O)[C@@H](N)Cc2c[nH]c3ccccc23)C(=O)N2CCC[C@H]2C(=O)N[C@@H](Cc2ccc(O)cc2)C(=O)NCC(=O)N[C@@H](CC(C)C)C(=O)N1)C(N)=O` [SEQ ID NO: 63, WECPYGLCWI] (H-WECPYGLCWI-NH2; disulfide 3-8; N-terminus and C-terminus assumed), the Kd stood at 3.87 µM.

Turning to `CC(C)C[C@H](NC(=O)[C@@H]1CSSC[C@H](NC(=O)[C@@H]2CCCN2)C(=O)N[C@@H](CC(=O)O)C(=O)N[C@@H](Cc2ccc(O)cc2)C(=O)N[C@@H](Cc2ccc(O)cc2)C(=O)NCC(=O)N[C@@H]([C@@H](C)O)C(=O)N1)C(N)=O` [compound 32] (H-PCDYYGTCL-NH2; disulfide 2-8), the Kd stood at 50 µM.

As for `CC(C)C[C@H](NC(=O)[C@@H]1CSSC[C@H](NC(=O)[C@@H]2CCCN2C(=O)[C@@H](N)CC(C)C)C(=O)N[C@@H](CC(=O)O)C(=O)N[C@@H](Cc2ccc(O)cc2)C(=O)N[C@@H](Cc2ccc(O)cc2)C(=O)NCC(=O)N[C@@H](CO)C(=O)N1)C(=O)N[C@@H](CC(=O)O)C(N)=O` [SEQ ID NO: 48, LPCDYYGSCLD] (H-LPCDYYGSCLD-NH2; disulfide 3-9), the Kd was found to be 26 µM.

As for `CC(C)C[C@H](NC(=O)[C@@H]1CSSC[C@H](N)C(=O)N[C@@H](CC(=O)O)C(=O)N[C@@H](Cc2ccc(O)cc2)C(=O)N[C@@H](Cc2ccc(O)cc2)C(=O)NCC(=O)N[C@@H]([C@@H](C)O)C(=O)N1)C(N)=O` [compound 33] (H-CDYYGTCL-NH2; disulfide 1-7), the Kd is 22 µM.

Consider `CC[C@H](C)[C@H](NC(=O)[C@H](Cc1c[nH]cn1)NC(=O)[C@@H]1CSSC[C@H](NC(=O)[C@H](Cc2c[nH]cn2)NC(=O)[C@H](Cc2ccccc2)NC(=O)CN)C(=O)N2CCC[C@H]2C(=O)N[C@@H](Cc2ccc(O)cc2)C(=O)N[C@@H](CC(=O)O)C(=O)N[C@@H](CC(C)C)C(=O)N1)C(=O)N[C@@H](CC(C)C)C(N)=O` [SEQ ID NO: 57, GFHCPYDLCHIL] (H-GFHCPYDLCHIL-NH2; disulfide 4-9 (inferred); N-terminus and C-terminus assumed), for which the Kd came to 6.7 µM.

As to `C[C@@H](O)[C@@H]1NC(=O)CNC(=O)[C@H](Cc2ccc(O)cc2)NC(=O)[C@H](Cc2ccc(O)cc2)NC(=O)[C@H](CC(=O)O)NC(=O)[C@@H](N)CSSC[C@@H](C(N)=O)NC1=O` [compound 34] (H-CDYYGTC-NH2; disulfide 1-7), the Kd came to 38 µM.

For `CC(C)C[C@H](NC(=O)[C@@H]1CSSC[C@H](NC(=O)[C@H](C)NC(=O)[C@@H](N)CC(C)C)C(=O)N[C@@H](CC(=O)O)C(=O)N[C@@H](Cc2ccc(O)cc2)C(=O)N[C@@H](Cc2ccc(O)cc2)C(=O)NCC(=O)N[C@@H]([C@@H](C)O)C(=O)N1)C(=O)N[C@@H](CC(=O)O)C(N)=O` [SEQ ID NO: 41, LACDYYGTCLD] (H-LACDYYGTCLD-NH2; disulfide 3-9), the Kd amounted to 2.9 µM.

On to `CC(C)C[C@H](NC(=O)[C@@H]1CSSC[C@H](NC(=O)[C@@H]2CCCN2C(=O)[C@@H](N)CC(C)C)C(=O)N[C@@H](CC(=O)O)C(=O)N[C@@H](Cc2ccc(O)cc2)C(=O)N[C@@H](Cc2ccc(O)cc2)C(=O)NCC(=O)N[C@@H](C(C)C)C(=O)N1)C(=O)N[C@@H](CC(=O)O)C(N)=O` [SEQ ID NO: 51, LPCDYYGVCLD] (H-LPCDYYGVCLD-NH2; disulfide 3-9), for which the Kd worked out at 28 µM.

As to `CC[C@H](C)[C@H](NC(=O)[C@H](Cc1c[nH]cn1)NC(=O)[C@@H]1CSSC[C@H](NC(=O)[C@@H](N)Cc2c[nH]cn2)C(=O)N2CCC[C@H]2C(=O)N[C@@H](Cc2ccc(O)cc2)C(=O)N[C@@H](CC(=O)O)C(=O)N[C@@H](CC(C)C)C(=O)N1)C(=O)N[C@@H](CC(C)C)C(N)=O` [SEQ ID NO: 59, HCPYDLCHIL] (H-HCPYDLCHIL-NH2; disulfide 2-7), the Kd was 3.8 µM.

Regarding `CC(C)C[C@H](NC(=O)[C@@H]1CSSC[C@H](NC(=O)[C@@H]2CCCN2C(=O)[C@@H](N)CC(C)C)C(=O)N[C@@H](CC(=O)O)C(=O)N[C@@H](Cc2ccc(O)cc2)C(=O)N[C@@H](Cc2ccc(O)cc2)C(=O)N[C@@H](C)C(=O)N[C@@H]([C@@H](C)O)C(=O)N1)C(=O)N[C@@H](CC(=O)O)C(N)=O` [SEQ ID NO: 45, LPCDYYATCLD], the Kd was 12.3 µM.

On to `CC[C@H](C)[C@H](NC(=O)[C@H](Cc1c[nH]cn1)NC(=O)[C@@H]1CSSC[C@H](NC(=O)[C@H](Cc2c[nH]cn2)NC(=O)[C@@H](N)Cc2ccccc2)C(=O)N2CCC[C@H]2C(=O)N[C@@H](Cc2ccc(O)cc2)C(=O)N[C@@H](CC(=O)O)C(=O)N[C@@H](CC(C)C)C(=O)N1)C(N)=O` [SEQ ID NO: 60, FHCPYDLCHI] (H-FHCPYDLCHI-NH2; disulfide 3-8; N-terminus and C-terminus assumed), for which the Kd came to 2 µM.

As to `CC(C)C[C@H](N)C(=O)N1CCC[C@H]1C(=O)N[C@H]1CSSC[C@@H](C(=O)N[C@@H](C)C(=O)N[C@@H](CC(=O)O)C(N)=O)NC(=O)[C@H]([C@@H](C)O)NC(=O)CNC(=O)[C@H](Cc2ccc(O)cc2)NC(=O)[C@H](Cc2ccc(O)cc2)NC(=O)[C@H](CC(=O)O)NC1=O` [SEQ ID NO: 47, LPCDYYGTCAD] (H-LPCDYYGTCAD-NH2; disulfide 3-9), the Kd turned out to be 10.1 µM.

Staying with this assay, now noted: sequences of phage isolates from TN10-9 and TN6-6 libraries (Table 5); read-out: Kd DD(E).
With QWECPYGLCWIQ [compound 22], the Kd amounted to 0.74 µM.

For WFHCPYDLCHIL [compound 21], the Kd was determined as 1.4 µM.

The target in the next assay is DD(E) soluble fibrin-derived polypeptide (UniProt P02671). In words: Kd against DD(E) target.
Conditions: not given
Consider B1, for which the Kd was 4 µM.

Take H-PCDYYGTCL-NH2 (disulfide 2-8 (inferred)) [truncated peptide …]: the Kd was 50 µM.

The molecule H-CDYYGTC-NH2 (disulfide 1-7 (inferred)) [truncated peptide CDYYGTC] had a Kd of 38 µM.

On to B2, for which the Kd came out at 3.4 µM.

With B3, the Kd is 9.8 µM.

For LPCDYYXTCLD (not fully specified; D-alanine at position 7) [D-alanine peptide LPCDYYdATCLD], the Kd was determined as 4.9 µM.

As to H-CDYYGTCL-NH2 (disulfide 1-7 (inferred)) [truncated peptide CDYYGTCL], the Kd came to 22 µM.

H-LPCDYYGTCLD-NH2 (disulfide 3-9 (inferred)) gave a Kd of 2.6 µM.

Molecule B4 showed a Kd of 7.3 µM.

(Values after patent US20050261472A1, “Binding moieties for fibrin” (Dyax Corp., priority 1999, published 2005).)
